In data set [1] the test system is H69 parental (H69/P) human small cell lung carcinoma cell line. Kind of data set: Cytotoxicity, H69 parental cell line (AlamarBlue). Type of data set: cell-based. To be noted: concentration required to give 50% cell kill, 5–6 days incubation. The procedure:
(§1) The cytotoxicity of compounds of formula (I) was measured using the H69 parental (H69/P) human small cell lung carcinoma cell line and the drug resistant human small cell lung carcinoma cell line H69/LX4 which overexpresses P-glycoprotein (Pgp). The cytotoxicity, as measured by the IC50 (concentration required to give 50% cell kill) in the H69/LX4 cell line divided by the cytotoxicity in the H69/P cell line gives an indication of the degree to which a compound is affected by Pgp-dependent MDR and is termed the resistance factor (Rf) of the compound.
(§2) H69/P and H69/LX4 cells were pipetted into 96-well tissue culture plates and then allowed to incubate at 37° C. for 4 h. […] The plates were incubated for 5–6 days before adding AlamarBlue to each well and returning the plates to the incubator for 5–8 h to allow colour development. The cell numbers in the plates at the end of this period were directly proportional to the absorbance measured at a wavelength of 570 nm (reference wavelength 600 nm).

Data set [2] relates to drug resistant human small cell lung carcinoma cell line H69/LX4 which overexpresses P-glycoprotein (Pgp). Kind of data set: Cytotoxicity, drug resistant H69/LX4 cell line (AlamarBlue). Type of data set: cell-based. Conditions: for IC50: concentration required to give 50% cell kill, 5–6 days incubation; for Rf (resistance factor): IC50 in H69/LX4 divided by IC50 in H69/P, Pgp-dependent MDR. The procedure: as §1, §2

Data set [3] deals with COR-L23 parental (COR-L23/P) human non-small cell lung carcinoma cell line. The data set can be described thus: Cytotoxicity, COR-L23 parental cell line (SRB assay). To be noted: concentration required to give 50% cell kill, 5–6 days incubation. It is filed as cell-based. The procedure: (§3) The cytotoxicity of the compounds described herein was also measured using the COR-L23 parental (COR-L23/P) human non-small cell lung carcinoma cell line and also the drug resistant human non-small cell lung carcinoma cell line COR-L23/R which overexpresses multidrug resistance associated protein (MRP). The cytotoxicity, as measured by the IC50 (concentration required to give 50% cell kill) in the L23/R cell line divided by the cytotoxicity in the L23/P cell line gives an indication of the degree to which a compound may be affected by MRP-dependant MDR and is termed the resistance factor (Rf) of the compound.
(§4) L23/P and L23/R cells were pipetted into 96-well tissue culture plates and then allowed to incubate at 37° C. for 4 h. […] The plates were incubated for 5–6 days before proliferation was assessed using the sulphurhodamine B (SRB) assay as described by Skehan et al, J Natl Cancer Inst 1990, 82, pp 1107–1112.
For orientation: In SRB staining, fixed cells bind dye roughly in proportion to their protein.

Data set [4] can be described thus: Cytotoxicity, drug resistant COR-L23/R cell line (SRB assay). Type of data set: cell-based, human. To be noted: Homo sapiens, COR-L23/R; concentration required to give 50% cell kill; 5–6 days incubation. The procedure:
as §3, §4

For data set [5], the system named is drug resistant human non-small cell lung carcinoma cell line COR-L23/R which overexpresses multidrug resistance associated protein (MRP). Described as above. Type of data set: cell-based. Conditions: for Rf (resistance factor): IC50 in L23/R divided by IC50 in L23/P, MRP-dependant MDR; for IC50: concentration required to give 50% cell kill, 5–6 days incubation. The procedure: as §3, §4

The subject of data set [6] is Jurkat human leukaemia cell line (JLC). Kind of data set: Cytotoxicity, Jurkat leukaemia cell line JLC. It is filed as cell-based. To be noted: concentration required to give 50% cell kill. The procedure: (§5) The cytotoxicity of the compounds described herein was also measured using the Jurkat human leukaemia cell line (JLC) and also the amsacrine-resistant Jurkat human leukaemia cell line (JLA) and the doxorubicin-resistant Jurkat human leukaemia cell line (JLD). The cytotoxicity, as measured by the IC50 (concentration required to give 50% cell kill) in the JLA or JLD cell line divided by the cytotoxicity in the JLC cell line gives an indication of the degree to which a compound may be affected by atypical drug resistance and is termed the resistance factor (Rf) of the compound. The method used has been described previously (Finlay et al, Eur J. Cancer 32A, 708–714, 1996). Compounds were active in the range 1 nM to 5 μM.

The subject of data set [7] is amsacrine-resistant Jurkat human leukaemia cell line (JLA). Kind of data set: Cytotoxicity, amsacrine-resistant Jurkat cell line JLA. Type of data set: cell-based. To be noted: for IC50: concentration required to give 50% cell kill; for Rf (JLA/JLC): IC50 in JLA divided by IC50 in JLC, atypical drug resistance. The procedure: as §5
Data set [8] relates to doxorubicin-resistant Jurkat human leukaemia cell line (JLD). Kind of data set: Cytotoxicity, doxorubicin-resistant Jurkat cell line JLD. Type of data set: cell-based. To be noted: for IC50: concentration required to give 50% cell kill; for Rf (JLD/JLC): IC50 in JLD divided by IC50 in JLC, atypical drug resistance. The procedure: as §5
The next data set concerns the target T1, topoisomerase I (Homo sapiens, UniProt P11387).
T1 sequence (P11387 1-765): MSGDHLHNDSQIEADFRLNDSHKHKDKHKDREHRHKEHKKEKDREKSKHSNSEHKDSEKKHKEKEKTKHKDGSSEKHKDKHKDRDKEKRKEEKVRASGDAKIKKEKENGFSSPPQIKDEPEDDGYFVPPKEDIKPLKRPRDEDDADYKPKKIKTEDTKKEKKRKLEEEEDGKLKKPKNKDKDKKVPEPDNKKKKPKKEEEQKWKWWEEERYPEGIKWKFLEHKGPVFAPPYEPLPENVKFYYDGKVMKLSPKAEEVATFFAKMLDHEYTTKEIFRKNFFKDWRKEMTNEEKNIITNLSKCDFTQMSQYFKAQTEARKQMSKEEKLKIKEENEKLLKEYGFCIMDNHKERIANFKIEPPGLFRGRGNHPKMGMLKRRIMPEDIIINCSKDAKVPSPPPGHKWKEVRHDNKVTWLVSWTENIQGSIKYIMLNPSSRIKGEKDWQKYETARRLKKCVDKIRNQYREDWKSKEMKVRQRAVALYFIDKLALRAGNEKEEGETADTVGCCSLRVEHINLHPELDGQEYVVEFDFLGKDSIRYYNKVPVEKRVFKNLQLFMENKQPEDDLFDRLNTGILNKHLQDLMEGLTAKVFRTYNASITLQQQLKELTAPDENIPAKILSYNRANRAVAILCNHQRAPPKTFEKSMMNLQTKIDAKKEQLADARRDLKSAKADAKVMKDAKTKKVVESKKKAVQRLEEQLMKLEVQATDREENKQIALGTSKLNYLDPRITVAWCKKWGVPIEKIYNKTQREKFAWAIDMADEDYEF
Kind of data set: Stabilisation of cleavable complexes, topoisomerase I. To be noted: range where an increase in cleavable complexes was observed relative to controls in the absence of drug. Type of data set: biochemical. The source says: (§6) Compounds were also studied for their ability to stabilize cleavable complexes in the presence of either topoisomerase I or II essentially as described previously (Finlay et al, Eur J. Cancer 32A, 708–714, 1996). Presence of cleavable complexes was indicated by an increase in the number and intensity of bands observed after electrophoresis and autoradiography. The results are expressed as the effective concentration range where an increase in cleavable complexes was observed relative to controls in the absence of drug.

For another data set, the system named is topoisomerase II. Kind of data set: Stabilisation of cleavable complexes, topoisomerase II. It is filed as biochemical. To be noted: range where an increase in cleavable complexes was observed relative to controls in the absence of drug.
Source text: as §6

Turning to `COc1cccc2c1ccc1nc3cccc(C(=O)NCCN(C)C)c3nc12` [Compound 3, 4-Methoxy-benzo[a]phenazine-11-carboxylic acid (2-dimethylamino-ethyl)-amide], the IC50 (commonly the midpoint of a concentration-inhibition curve) in data set [1] (Homo sapiens) turned out to be 35 nM; in [2] (Homo sapiens), 49 nM; in data set [3] (Homo sapiens, COR-L23), 14.4 nM; in data set [4], 19.9 nM; in [6] (Homo sapiens, Jurkat), 27 nM; in [7] (Homo sapiens, Jurkat) it was 21.6 nM. In addition, the IC50 in data set [8] (Homo sapiens, Jurkat) was 24.3 nM. The “Rf (resistance factor)” value in data set [2] and in [5] was 1.4 each time. For the same compound, the “Rf (JLA/JLC)” value in data set [7] came out at 0.8. In addition, in data set [8], the “Rf (JLD/JLC)” value is reported as 0.9. For the same compound, the “Effective concentration range, Topoisomerase I” value on topoisomerase I fell in the range of 0.1 to 3.0 µM. Also, the “Effective concentration range, Topoisomerase II” value in the data set on topoisomerase II lay in the range of 0.1 to 3.0 µM.

Turning to `Br.CN(C)CCNC(=O)c1cccc2nc3ccc4c(O)cccc4c3nc12` [Compound 4, 4-Hydroxy-benzo[a]phenazine-11-carboxylic acid (2-dimethylamino-ethyl)-amide: hydrobromide salt], the IC50 in data set [1] came out at 35 nM; in data set [2], 48 nM; in [3], 14.7 nM; in data set [5] it was 16.8 nM; in [6], 19 nM; in data set [7] it was 26.6 nM. The compound further had an IC50 in data set [8] of 22.8 nM. For the same compound, the “Rf (resistance factor)” value is recorded as 1.4 in [2] and 1.1 in [5]. In [7], the “Rf (JLA/JLC)” value is listed as 1.4. In data set [8], the “Rf (JLD/JLC)” value came to 1.2. In addition, at topoisomerase I, the “Effective concentration range, Topoisomerase I” value lay in the range of 0.1 to 3.0 µM. For the same compound, the “Effective concentration range, Topoisomerase II” value in the data set with topoisomerase II lay in the range of 0.1 to 3.0 µM.

Turning to `COc1cccc2c1ccc1nc3cccc(C(=O)N[C@H](C)CN(C)C)c3nc12` [Compound 78, 4-Methoxy-benzo[a]phenazine-11-carboxylic acid (2-dimethylamino-1-(R)-methyl-ethyl)-amide], the IC50 worked out at 24 nM in data set [1] (Homo sapiens); 31 nM in data set [2] (Homo sapiens); 7.6 nM in [3] (Homo sapiens, COR-L23); 8.9 nM in [4]; 21 nM in data set [6] (Homo sapiens, Jurkat); 14 nM in [7] (Homo sapiens, Jurkat). In data set [8] (Homo sapiens, Jurkat), this compound displayed an IC50 of 17 nM. Further, the entries for the “Rf (resistance factor)” value in [2] and in data set [5] were 1.3 and 1.2, respectively. The “Rf (JLA/JLC)” value in [7] turned out to be 0.7. Also, in data set [8], the “Rf (JLD/JLC)” value was 0.8. The “Effective concentration range, Topoisomerase I” value at topoisomerase I fell in the range of 0.03 to 1.0 µM. In addition, in the data set on topoisomerase II, the “Effective concentration range, Topoisomerase II” value lay in the range of 0.03 to 1.0 µM.

For `COc1cccc2c1ccc1nc3cccc(C(=O)NC(CN(C)C)C(C)O)c3nc12` (centres unmarked) [Compound 84, 4-Methoxy-benzo[a]phenazine-11-carboxylic acid (1-dimethylaminomethyl-2-hydroxy-propyl)-amide], the 50% inhibitory concentration (IC50) in data set [1] (Homo sapiens) turned out to be 19 nM; in data set [2] (Homo sapiens) it was 19 nM; in data set [6] (Homo sapiens, Jurkat) it was 4.4 nM; in data set [7] (Homo sapiens, Jurkat), 9.8 nM; in data set [8] (Homo sapiens, Jurkat) it was 7.2 nM. Also, the “Rf (resistance factor)” value in data set [2] is reported as 1. The “Rf (JLA/JLC)” value in [7] stood at 2.2. Moreover, the “Rf (JLD/JLC)” value in data set [8] was determined as 1.6. Further, on topoisomerase I, the “Effective concentration range, Topoisomerase I” value was in the range of 0.03 to 1.0 µM. In the data set on topoisomerase II, the “Effective concentration range, Topoisomerase II” value lay within 0.03 to 1.0 µM.

Regarding `CN(C)CCNc1nc2cc(O)ccc2c2c1C(=O)c1ccccc1-2` [TAS-103, reference compound], the IC50 in data set [1] turned out to be 21 nM; in data set [2], 22 nM; in data set [3], 16.3 nM; in [5], 22 nM; in [6], 5.4 nM; in [7], 302 nM. This compound came in with an IC50 in data set [8] of 384 nM. Moreover, the entries for the “Rf (resistance factor)” value in data set [2] and in data set [5] were 1.1 and 1.3, respectively. For the same compound, the “Rf (JLA/JLC)” value in data set [7] was determined as 55.9. For the same compound, the “Rf (JLD/JLC)” value in [8] was determined as 71.1. Moreover, the “Effective concentration range, Topoisomerase I” value on topoisomerase I lay within 0.3 to 10.0 µM. In the data set on topoisomerase II, the “Effective concentration range, Topoisomerase II” value lay within 0.3 to 10.0 µM.

These data come from patent US7132419B2, “Pharmaceutical compounds” (Xenova Limited, priority 2000, dated 2006).
